Data taken from US8802655B2, “4-hydroxybenzomorphans” (Rensselaer Polytechnic Institute, priority 2004, dated 2014).
Like-named read-outs stand apart in the source and are kept apart here.

Assays:
Type in all cases: binding
μ opioid receptor = μ opioid receptor (Homo sapiens, UniProt P35372); conditions: read-out: Ki (nM ± S.E.) [^3H]DAMGO (μ)
Description: (§1) The affinities of the compounds of the invention are determined by the method described in Wentland et al. [BioOrg.

κ opioid receptor = molecular target: T1, κ opioid receptor (UniProt P41144)
T1 construct: rows headed: Ki (nM ± S.E.) [^3H]U69,593 (κ); other: radioligand [3H]U69,593
Description: as §1

δ opioid receptor [1] = molecular target: T2, δ opioid receptor (UniProt A0A286XTF2); set-up: unit μM; conditions: radioligand [3H]Naltrindole
Description: as §1

δ opioid receptor [2] = molecular target: T2, δ opioid receptor; conditions: read-out: Ki (nM ± S.E.) [^3H]Naltrindole (δ); radioligand [3H]Naltrindole
Description: as §1

[3] = radioligand [3H]U69,593; read-out: Ki (nM ± S.E.) [^3H]U69,593 (κ)
[4] = read-out: Ki (nM ± S.E.) [^3H]Naltrindole (δ)
[5] = read-out: Ki (nM ± S.E.) [^3H]U69,593 (κ); radioligand [3H]U69,593

Chain of μ opioid receptor (P35372 whole entry): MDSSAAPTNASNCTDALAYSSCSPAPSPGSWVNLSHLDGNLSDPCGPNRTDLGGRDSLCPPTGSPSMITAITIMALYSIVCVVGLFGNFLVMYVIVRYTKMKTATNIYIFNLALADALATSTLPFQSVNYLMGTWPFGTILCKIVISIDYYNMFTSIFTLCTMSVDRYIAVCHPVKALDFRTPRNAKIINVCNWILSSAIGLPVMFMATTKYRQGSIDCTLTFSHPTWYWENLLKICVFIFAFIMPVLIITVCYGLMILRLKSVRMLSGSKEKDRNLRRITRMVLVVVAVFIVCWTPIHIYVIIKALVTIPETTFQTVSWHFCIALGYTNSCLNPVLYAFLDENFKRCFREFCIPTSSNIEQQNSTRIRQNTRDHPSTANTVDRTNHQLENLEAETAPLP

Row | Structure (SMILES) | Ki (μ opioid receptor) [nM] | Ki (κ opioid receptor; [3]) [nM] | Ki (δ opioid receptor [1]; [4]) [nM] | Ki (κ opioid receptor; [5]) [nM] | Ki (δ opioid receptor [1]; read-out: Ki [^3H]Naltrindole (δ), unit μM) [nM] | Ki (δ opioid receptor [2]) [nM]
1 | NC(=O)c1ccc2c3c1O[C@H]1C(=O)CC[C@@]4(O)[C@@H](C2)N(CC2CC2)CC[C@]314 [Sample 2, 3-Carboxyamido-naltrexone] | 1.9 ± 0.21 | 22 ± 0.85 | 110 ± 8.1 |  |  | 
2 | NC(=O)c1ccc2c(c1O)[C@]13CCN(CC4CC4)[C@H](C2)[C@]1(O)CCC(=O)C3 [Sample 3, 3-Carboxyamido-4-hydroxy-naltrexone] | 0.052 ± 0.004 | 0.23 ± 0.018 | 2.6 ± 0.26 |  |  | 
3 | COc1ccc2c(c1O)[C@]13CCN(CC4CC4)[C@H](C2)[C@]1(O)CCC(=O)C3 [Sample 4, 3-methoxy-4-hydroxy-naltrexone] |  |  |  | 12 ± 0.29 | > 10000 | 
4 | COc1ccc2c(c1O)[C@]13CCN(C)[C@H](C2)[C@@H]1C=CC(=O)C3 [Sample 7, 3-Methoxy-4-hydroxy-6-oxo-morphine] |  |  | 2000 ± 80 | 740 ± 25 |  | 
5 | COc1ccc2c(c1O)[C@]13CCN(C)[C@H](C2)[C@@H]1CCC(=O)C3 [Sample 8, 3-Methoxy-4-hydroxy-6-oxo-7,8-dihydro-morphine] |  |  | 1200 ± 65 | 350 ± 8.5 |  | 
6 | NC(=O)c1ccc2c(c1O)[C@]13CCN(CC4CCC4)[C@H](C2)[C@]1(O)CCC(=O)C3 [Sample 21, 3-Carboxamido-4-hydroxy-6-oxo-nalbuphine] |  |  |  | 0.27 ± 0.013 |  | 4.2 ± 0.36
7 | NC(=S)c1ccc2c(c1O)[C@]13CCN(CC4CC4)[C@H](C2)[C@]1(O)CCC(=O)C3 [Sample 26, 3-Thiocarboxyamido-4-hydroxy-naltrexone] |  |  | 140 ± 11 | 5 ± 0.72 |  | 
